Experiment [1] has as its target T1, human RTCB-Archease complex (Homo sapiens, UniProt Q8IWT0+Q9Y3I0).
T1 construct: full-length RTCB from Sf21 insect cells (His6 tag, TEV-cleaved optionally) with Archease isoform 1 from E. coli (N-terminal His6, thrombin site, tag removal optional); 1:1 complex
T1 sequence (Q9Y3I0 1-505): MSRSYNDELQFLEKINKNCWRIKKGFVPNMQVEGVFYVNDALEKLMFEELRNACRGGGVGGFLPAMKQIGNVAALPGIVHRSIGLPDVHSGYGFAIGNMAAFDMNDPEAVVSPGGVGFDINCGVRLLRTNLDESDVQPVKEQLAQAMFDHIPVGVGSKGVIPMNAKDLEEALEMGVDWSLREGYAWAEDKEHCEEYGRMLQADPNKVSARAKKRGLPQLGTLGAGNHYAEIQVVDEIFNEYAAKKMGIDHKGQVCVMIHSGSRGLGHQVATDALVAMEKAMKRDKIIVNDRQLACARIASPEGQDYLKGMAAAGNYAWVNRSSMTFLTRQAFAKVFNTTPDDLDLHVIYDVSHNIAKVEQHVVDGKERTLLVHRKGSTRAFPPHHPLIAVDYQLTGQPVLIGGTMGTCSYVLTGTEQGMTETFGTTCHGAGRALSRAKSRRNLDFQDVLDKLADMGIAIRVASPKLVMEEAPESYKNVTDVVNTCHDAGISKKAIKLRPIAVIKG
T1 sequence (Q8IWT0 1-167): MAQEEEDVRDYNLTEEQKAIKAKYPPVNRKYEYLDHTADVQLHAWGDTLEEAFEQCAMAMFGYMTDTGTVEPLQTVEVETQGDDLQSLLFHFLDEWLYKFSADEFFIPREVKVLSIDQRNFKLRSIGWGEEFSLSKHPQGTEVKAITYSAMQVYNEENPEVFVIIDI
Nature of the experiment: X-ray crystal structure, […] Å. The class given is binding. As to conditions: covalent; phosphoramidate with RTCB H428, formed from GTP in co-crystallization; Mn2+ (sites A, C); 291 K.

For experiment [2], the target named is T1, human RTCB-Archease complex. Briefly: radioactive guanylylation assay, gel autoradiography. As to conditions: covalent; labelled compound (alpha-32P-GTP 80 nM); RTCB 1 µM, Archease 1 µM, 0.5 mM MnCl2, pH 7.5, 30 °C. The class given is biochemical.
The target of the next experiment is human RTCB (human) (UniProt Q9Y3I0).
The target in experiment [3] is T1, human RTCB-Archease complex. Nature of the experiment: X-ray crystal structure, […] Å. As to conditions: Mn2+ (sites A, B, C); RTCB active site, gamma-phosphate coordinated by Archease-bound Mn2+; non-hydrolyzable GTP analog; 291 K. Type of experiment: binding.

For `Nc1nc2c(ncn2[C@@H]2O[C@H](COP(=O)(O)O)[C@@H](O)[C@H]2O)c(=O)[nH]1` [GMP], in experiment [1], the “X-ray crystal structure, 2.2 Å” value is on record as “GTP reacted with the active site histidine H428 to form the guanylylated RTCB-H428-GMP intermediate”.

In the case of `Nc1nc2c(ncn2[C@@H]2O[C@H](COP(=O)(O)OP(=O)(O)OP(=O)(O)O)[C@@H](O)[C@H]2O)c(=O)[nH]1` [GTP], in experiment [2], the “radioactive guanylylation assay, gel autoradiography” value is reported as “We detected the formation of guanylylated RTCB only in the presence of Archease”.

As for “human Archease (isoform 1) (from UniProt Q8IWT0 1-167) (natural protein)”, in the experiment with human RTCB (human), the apparent rate constant of XBP1 intron circularization by RTCB (250 nM) with 1 uM Archease, GTP and Mn2+; no ligated product without Archease stood at 0.015 min⁻¹.

Turning to `Nc1nc2c(ncn2[C@@H]2O[C@H](COP(=O)(O)CP(=O)(O)OP(=O)(O)O)[C@@H](O)[C@H]2O)c(=O)[nH]1` [GMPCPP, guanosine-5’-[(α,β)-methyleno]triphosphate], the “X-ray crystal structure, 2.3 Å” value in experiment [3] is reported as “RTCB-Archease complex with a well-resolved GMPCPP molecule in the active site of RTCB”.

The values above are taken from publication PMC10944509, “Structural and mechanistic insights into activation of the human RNA ligase RTCB by Archease” (Nature Communications, 2024).
